Results published in patent US20080206866A1, “Reagency and Method for Preventing Time-Dependent Expression in Biological Cells” (ANDNAGEN AG, priority 2005, published 2008).

What was measured:
[1] = test system: tumour-associated transcripts GA733-2, MUC-1 and Her-2; assay: Detection of time-dependent induced transcription in treated blood samples of healthy donors (immunomagnetic cell selection, RT-PCR, Bioanalyser); type: cell-based, human; conditions: healthy donor
Excerpt: (§1) In all the examples which are represented subsequently, an analysis was implemented as described in EP 02 732 726. Antibodies were thereby coupled to magnetic particles for cell selection. The antibodies represented subsequently in Table 1 were thereby used as antibodies.
(§2) The magnetic particles were thereby used in a concentration of 4×10^8 beads/ml (CELLection™ Pan Mouse IgG Kit, company Dynal). The ratios between the antibody concentration and the antibodies coupled thereto are reproduced in Table 2.
The magnetic particles prepared in this way were mixed in equal parts and added to the blood (EDTA) in 100 μl PBS per 5 ml sample.
After 30 min incubation in an overhead agitator, the magnetic particles which were present possibly as cell-antibody magnetic particle complexes, were washed three times with PBS by means of a magnetic particle concentrator (MPC®-S, company Dynal) and the adhering cells were treated subsequently corresponding to the mRNA isolation protocol described subsequently. […]
The thus produced amplificates of the cDNA were separated electrophoretically by means of a bioanalyser 2100 (company Agilent). […] Peaks with a level of <4.0 are evaluated as negative. Peaks, the level of which is 4.0 to 6.7, can be evaluated neither as positive nor as negative. In this way FIGS. 1 to 6 were produced and evaluated.

tumour cell line Calu-3 = assay: Detection of 2 inoculated Calu-3 tumour cells in treated blood samples; type: cell-based, human; conditions: 2 Calu-3 cells
Excerpt: as §1, §2
The magnetic particles prepared in this way were mixed in equal parts and added to the blood (EDTA) in 100 μl PBS per 5 ml sample. […]
The thus produced amplificates of the cDNA were separated electrophoretically by means of a bioanalyser 2100 (company Agilent). […] Peaks with a level of <4.0 are evaluated as negative. Peaks, the level of which is 4.0 to 6.7, can be evaluated neither as positive nor as negative. In this way FIGS. 1 to 6 were produced and evaluated. […]
Tracks 1, 4 and 7 thereby show a ladder with size markers, tracks 2, 5 and 8 show the amplified DNA fragments of the tumour-associated transcripts to be detected in a healthy donor and of an internal control of β-actin. […]

[2] = 0.01% (w/v) DU, 0 h, 24 h and 48 h at 4° C.
[3] = 0.025%, 0.05% and 0.075% (w/v) bronopol, 24 h at 4° C.

| SMILES | analysis result for illegitimate time-dependent induced expression, samples without inoculated cells [1, 2] | detection of tumour-associated transcripts of inoculated cells (tumour cell line Calu-3; [2]) | analysis result for illegitimate time-dependent induced expression [1, 3] | detection of tumour-associated transcripts of inoculated cells (tumour cell line Calu-3; [3]) |
| --- | --- | --- | --- | --- |
| O=C(NCO)N(CO)C1(CO)C(=O)NC(=O)N1CO (stereo not shown) [DU, diazolidinyl urea] | negative | detected unequivocally |  |  |
| O=[N+]([O-])C(Br)(CO)CO [bronopol, 2-bromo-2-nitropropane-1,3-diol] |  |  | negative | detected unequivocally |
